Our source for the IC50 values is ChEMBL document CHEMBL3217704, “Combination of biotransformation by P450 BM3 mutants with on-line post-column bioaffinity and mass spectrometric profiling as a novel strategy to diversify and characterize p38 kinase inhibitors” (Medchemcomm, 2013).

Structures are written as SMILES.

The assay deals with Mitogen-activated protein kinase 14 (Homo sapiens, UniProt Q16539). Description: Displacement of SKF86002 from recombinant human p38alpha by fluorescence-based assay.
Chain of Mitogen-activated protein kinase 14 (Q16539 whole entry): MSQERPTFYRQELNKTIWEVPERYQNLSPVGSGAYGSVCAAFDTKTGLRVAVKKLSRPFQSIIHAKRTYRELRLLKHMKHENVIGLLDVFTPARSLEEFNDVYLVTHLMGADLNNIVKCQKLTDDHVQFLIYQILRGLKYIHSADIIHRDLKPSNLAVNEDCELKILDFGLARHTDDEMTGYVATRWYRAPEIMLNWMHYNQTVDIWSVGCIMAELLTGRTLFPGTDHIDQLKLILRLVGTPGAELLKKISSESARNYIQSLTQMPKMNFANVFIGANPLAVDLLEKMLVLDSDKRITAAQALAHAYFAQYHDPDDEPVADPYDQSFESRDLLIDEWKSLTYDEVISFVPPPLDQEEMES

Turning to `CC(O)c1nc(-c2cccc(CO)c2)c(-c2ccnc(NC(=O)c3ccccc3)c2)s1` (stereo not given), the IC50 (read-out: IC50) amounted to 460 nM. Turning to `CCc1nc(-c2cccc(CO)c2)c(-c2ccnc(NC(=O)c3ccccc3)c2)s1`, where the note is “read-out: IC50”, the IC50 worked out at 310 nM. Same read-out and setting: for `Cc1cccc(-c2nc(C(C)O)sc2-c2ccnc(NC(=O)c3ccccc3)c2)c1` (stereo not given) the value was 38 nM. On the same count and under the same terms, the result for `CCc1nc(-c2cccc(C(=O)O)c2)c(-c2ccnc(NC(=O)c3ccccc3)c2)s1` reads 1500 nM.

`CC(O)c1nc(-c2cccc(C(=O)O)c2)c(-c2ccnc(NC(=O)c3ccccc3)c2)s1` (stereo not given): the IC50 result was “Not Active”.

As usually defined, the IC50 is the concentration at which inhibition is half-maximal.
